Data taken from ChEMBL document CHEMBL4190275, “Quinoliniumolate and 2H-1,2,3-Triazole Derivatives from the Stems of Paramignya trimera and Their α-Glucosidase Inhibitory Activities: In Vitro and in Silico Studies” (J Nat Prod, 2017).
pIC50: −log10 of the molar value.

Assay: Inhibition of Saccharomyces cerevisiae alpha-glucosidase using p-nitrophenyl-alpha-D-glucopyranoside as substrate measured after 30 mins

Row | Structure (SMILES) | pIC50
1 | C/C=C/c1cc(=O)c2ccccc2n1C | < 3.60
2 | CCCC[C@@H](CC)COC(=O)c1cn[nH]n1 | 3.86
